Measured values taken from patent publication US6296859A, “Synergistic composition comprising a compound of lipoamino acid structure and a water lily extract” (Societe d'Exploitation de Produits pour les Industries …, priority 1998, dated 2001).

Assays:
[1] = biological target: T1, human leukocytic elastase (HLE) (Homo sapiens, UniProt P08246); assay: anti-elastase test: spectrophotometric hydrolysis of N-methoxysuccinyl-alanine-proline-valine-para-nitroanilide at 410 nm; assay type: biochemical; conditions: test concentration 0.001% palmitoylproline alone; 25° C.
T1 sequence (P08246 30-267): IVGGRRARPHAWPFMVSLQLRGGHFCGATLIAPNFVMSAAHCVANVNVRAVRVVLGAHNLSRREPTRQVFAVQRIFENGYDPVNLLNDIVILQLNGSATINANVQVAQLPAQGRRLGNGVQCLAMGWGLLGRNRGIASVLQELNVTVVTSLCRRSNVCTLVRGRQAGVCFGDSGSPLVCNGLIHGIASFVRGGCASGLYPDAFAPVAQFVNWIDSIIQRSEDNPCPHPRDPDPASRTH
Method: The reaction is carried out in a spectrophotometer, thermostatically maintained at 25° C., fitted with a sample changer. All the kinetics are carried out at least three times, the average and the standard deviation then being calculated for the three values obtained. […] A correlation thus exists between the percentage of inhibition of the formation of the coloured product by the test compound and the percentage of inhibition of human leukocytic elastase. The percentage of inhibition thus calculated is also representative of the calmant activity of the test compound.

[2] = anti-free-radical test: xanthine oxidase/xanthine, rate of reduction of cytochrome C at 550 nm; assay type: biochemical; conditions: test concentration 0.0062% palmitoylproline alone; 25° C.
From the text: The determination of the anti-free-radical effect is based on the inhibition or the decrease in the rate of reduction of cytochrome C, by adding a test molecule to the reaction medium. The superoxide anion is generated by the action of xanthine oxidase on xanthine. In the absence of a molecule capable of capturing it, it results in the reduction of cytochrome C. The formation of reduced cytochrome C is monitored by a spectrophotometer, at 550 nm in the presence (Test) and in the absence (Control) of anti-free-radical molecules.
The reaction takes place in a spectrophotometer thermostatically adjusted to 25° C. and fitted with a sample changer. All of the kinetics are carried out at least three times; the average and the standard deviation are calculated for the three values obtained. A percentage of inhibition of the rate of formation of the coloured product (corresponding to the amount of free superoxide anion) will thus be calculated for each active agent tested. […] The percentage of inhibition of the formation of the coloured product by the active agent will thus correspond to its percentage of inhibition of the superoxide anion.

CCCCCCCCCCCCCCCC(=O)N1CCC[C@H]1C(=O)O [Palmitoylproline, N-palmitoylproline]
% of anti-elastase inhibition [1]: 22%
% of anti-free-radical inhibition [2]: 38%
